According to PMC5517430, “2,3,7,8-Tetrachlorodibenzo-p-dioxin (TCDD)-elicited effects on bile acid homeostasis: Alterations in biosynthesis, enterohepatic circulation, and microbial metabolism” (Scientific Reports, 2017):

Assays:
Format in all cases: in vivo, mouse
[1] = system: bsh and baiCD of gut microbiota; assay: Degenerate qRT-PCR of bacterial functional genes in fecal pellets; conditions: male mice, 30 µg/kg TCDD
Text: The bsh Hidden Markov Model (HMM) constructed by the Ribosomal Database Project consisted of 12 vetted seed sequences from Lactobacillus, Clostridium, Roseburia, Eubacterium, Butyrivibrio, and Streptococcus species, while the baiCD HMM consisted of 10 vetted seed sequences from Clostridium and Lachnospiraceae species. Using these models, more inclusive sequence sets were created for bsh and baiCD within the ‘FunGene functional gene pipeline & repository’[80] by extracting sequences from GenBank. Setting the HMM consensus percent identity cut-off to ≥40%, nucleotide sequences of bsh and baiCD were obtained from 2633 and 129 bacterial organisms, respectively. Given the diversity of bacterial organisms found to express bsh, the 2633 sequences from FunGene were separated into 4 groups based on nucleotide similarity determined through construction of a phylogenetic tree (Group 1: 423, Group 2: 330, Group 3: 955, Group 4: 925). Bacterial classifications (genus level) of the bsh sequences in each phylogenetic group are depicted in Fig. 8A1. […] The Primer Design terminal program developed by the Ribosomal Database Project (https://github.com/rdpstaff/PrimerDesign) was used to design degenerate primer sets which target conserved regions within baiCD and each phylogenetic group of bsh (Supplementary Table S2). To estimate the overall abundance of bile acid metabolism genes within the gut microbiome, primer sets were selected to target ≥75% of the baiCD sequences and the sequences within each bsh group.
Frozen fecal pellets were crushed into a powder and bacterial DNA was isolated using the QIAamp DNA Stool Mini Kit (Qiagen, Valencia, CA). To investigate bile acid metabolism loci, qRT-PCR was performed on a Bio-Rad CFX Connect Real-Time PCR Detection System as previously described. Gene expression relative to vehicle control was calculated using the 2^−∆∆CT method, with each fecal sample extract normalized to total bacterial DNA levels using universal primers targeting the 16 S ribosomal RNA gene[81]. Gene levels are plotted relative to vehicle control.

AhR = assay: Hepatic AhR ChIP-Seq (AhR genomic enrichment)
Method: Putative dioxin response elements (pDREs) with matrix similarity scores (MSS) ≥ 0.856 were previously identified. ChIP-Seq was previously performed on liver samples from male C57BL/6 mice 2 h after a single bolus oral gavage of 30 µg/kg TCDD[33], [70]. Briefly, cross-linked DNA was immunoprecipitated with either rabbit IgG or anti-AhR (H-211, sc-5579; Santa Cruz, CA). Libraries were prepared using the MicroPlex kit (Diagenode), pooled, and sequenced at a depth of a ~30 M on an Illumina HiSeq 2500 at the MSU RTSF Genomics Core. Reads were mapped to the mouse reference genome (GRCm38 release 81) using Bowtie 2.0.0 and alignments converted to SAM format using SAMTools v0.1.2. Normalization and peak calling was performed using CisGenome[71], by comparing IgG control and AhR enriched samples (n = 5) using a bin size (−b) of 25 and boundary refinement resolution (−bw) of 1 with default parameters.

Cyp39a1 = assay: Hepatic RNA-Seq differential gene expression (fold change, P1(t), ED50, BMD, BMDL); conditions: C57BL/6, mouse, liver, oral; male mice, TCDD every 4 d for 28 d
In short: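 Mouse ileal epithelium RNA-Seq (n = 3, ~30 M reads, mapped to GRCm38) and previously published hepatic RNA-Seq after TCDD dosing; fold changes are relative to vehicle. Differential expression was defined as |fold change| ≥ 1.5 with P1(t) ≥ 0.8 at one or more doses; BMD/BMDL came from benchmark-dose modelling.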

[2] = normalized to 16S rRNA gene, n = 2
[3] = male mouse liver, 2 h after single oral gavage of 30 µg/kg TCDD

In the case of `Clc1cc2c(cc1Cl)Oc1cc(Cl)c(Cl)cc1O2` [TCDD, 2,3,7,8-tetrachlorodibenzo-p-dioxin], the “bsh gene levels within phylogenetic group 4” value [1] is reported as “unaffected”, the “bsh gene levels within phylogenetic groups 1, 2, and 3” value [1] is reported as “increased” and the “Clostridium baiCD level (validated primers), fold increase” value [1, 2] is reported as 2.1 fold. The “bsh gene level, group 1 primer set 7, fold increase” value [1, 2] was 21.8 fold, the “bsh gene level, group 1 primer set 8, fold increase” value [1, 2] was 7.3 fold and the “bsh gene level, group 2 primer set 2, fold increase” value [1, 2] was 7.6 fold. The “bsh gene level, group 2 primer set 11, fold increase” value [1, 2] was 7.5 fold, the “bsh gene level, group 3 primer set 9, fold increase” value [1, 2] was 4.2 fold and the “Slc6a6 (TAUT) AhR Binding?” value (AhR; liver) was “YES”. The “Slc10a1 (NTCP or LBAT) AhR Binding?” value (AhR; liver) was “YES”, the “Slco2b1 (OATP2B1) AhR Binding?” value (AhR; liver) was “YES” and the “Soat1 AhR Binding?” value (AhR; liver) was “YES”. For the same compound, the “Soat2 AhR Binding?” value (AhR; liver) was “YES”, the “Sqle AhR Binding?” value (AhR; liver) was “YES” and the “Srebf2 AhR Binding?” value (AhR; liver) was “YES”. The “Tm7sf2 AhR Binding?” value (AhR; liver) was “YES”, the “AhR binding within Cyp8b1, fold enrichment” value (AhR; [3]) was 2.2 fold and the “AhR genomic binding at Cyp7a1, fold enrichment” value (AhR; [3]) was 2.3 fold. For the same compound, the “AhR genomic binding at the Hmgcr loci, fold increase” value (AhR; [3]) was 10.3 fold and the fold induction at 28 d (Cyp39a1) was 2.1.
